Measured values as given in patent publication US20250163384A1, “ORGANOIDS DERIVED FROM HUMAN COLONIC CELLS AND METHODS OF MAKING AND USING THE SAME” (priority 2022, published 2025).

Experiments:
Assay type in all cases: cell-based, human
[1] = system: GiLA1 organoid monolayers; assay: Apoptosis-induced ERK waves and cell movement (particle image velocimetry) in GiLA1 organoid monolayers; details: 5 μM Gefitinib (FIG. 3G), after an apoptotic event
Protocol: 384-well plates were imaged with fluorescent microscopy on a Nikon Eclipse TI2 automated microscope. For quantification of wave dynamics, organoids were imaged every 10-30 min. Tracking and segmentation of single cells in time lapse images in FIG. 2 was performed using the MATLAB program p53Cinema (Reyes et al., 2019). Analysis of the extracted data was performed in MATLAB. For the ERK activity heat maps in FIG. 3, images of the ERK-KTRmRuby2 and the H2B-iRFP670 were captured every 7 min for 24 hr. For each frame, individual nuclei were segmented using a MATLAB script developed in-house that identifies nuclei based on the H2B-iRFP670 images. The cytoplasmic ERK-KTRmRuby2 signal was obtained by creating a two pixel wide annulus surrounding the nucleus and averaging the intensity. Cells with active ERK were identified as having a mean ERK-KTR cytoplasmic signal>the mean ERK-KTR nuclear signal. The density-based spatial clustering of applications with noise algorithm (dbscan, MATLAB, 2021b) was performed on the centroids of ERK active cells to identify spatial clusters of cells with active ERK. A boundary was drawn around the spatial clusters using the boundary algorithm in MATLAB. […]
To determine the properties of the ERK waves, about 450 cells were tracked and their ERK activity was assessed over time following an apoptotic event (FIG. 3D, left panel and FIG. 3E). […]

ERK = ERK kinase translocation reporter (ERK-KTR) activity in GiLA1 organoid monolayers; details: for time to activation of ERK: GiLA1 monolayers, ERK activation methods compared
Protocol: 384-well plates were imaged with fluorescent microscopy on a Nikon Eclipse TI2 automated microscope. For quantification of wave dynamics, organoids were imaged every 10-30 min. Tracking and segmentation of single cells in time lapse images in FIG. 2 was performed using the MATLAB program p53Cinema (Reyes et al., 2019). Analysis of the extracted data was performed in MATLAB. For the ERK activity heat maps in FIG. 3, images of the ERK-KTRmRuby2 and the H2B-iRFP670 were captured every 7 min for 24 hr. For each frame, individual nuclei were segmented using a MATLAB script developed in-house that identifies nuclei based on the H2B-iRFP670 images. The cytoplasmic ERK-KTRmRuby2 signal was obtained by creating a two pixel wide annulus surrounding the nucleus and averaging the intensity. Cells with active ERK were identified as having a mean ERK-KTR cytoplasmic signal>the mean ERK-KTR nuclear signal. The density-based spatial clustering of applications with noise algorithm (dbscan, MATLAB, 2021b) was performed on the centroids of ERK active cells to identify spatial clusters of cells with active ERK. A boundary was drawn around the spatial clusters using the boundary algorithm in MATLAB. The ERK positive regions of each frame were summed up to generate the heat map in MATLAB. MAPK/ERK signaling is a critical regulatory pathway involved in maintaining homeostasis of epithelia in the gut (Wei et al., 2020). To assess ERK activity in human organoid monolayers over time, we utilized a well-characterized ERK kinase translocation reporter (ERK-KTR) (Regot et al., 2014). The ERK-KTR utilizes a bipartite nuclear localization signal (NLS) and nuclear export signal (NES) to transform ERK kinase activity into a nuclear to cytoplasmic shuttling event that is easily quantified by microscopy in organoid monolayers (FIG. 3A). We transduced the GiLA1 organoid line with a H2B-iRFP670 nuclear marker and ERK-KTR-mRuby2 reporter to perform nuclear and cytoplasmic segmentation and calculate nuclear-to-cytoplasmic ratios of the ERK-KTR (FIG. 3A, FIG. 3B and FIG. 9A).

[2] = system: GiLA1 organoid monolayers; assay: Tissue patterning (nodes / cell clusters) in GiLA1 organoid monolayers; details: for speed of node loss / patterning defects: GiLA1 monolayers, ERK activation methods compared
Protocol: SCREENSTAR 384-well black plates (Grenier #781866) were coated with ice cold Matrigel (CB40230C) diluted 1:40 in Serum-free Advanced-DMEM F12 media (SFM) for 1 hr. Monolayers were prepared using our previously described protocol (Thorne et al., 2018; Sanman et al., 2020). Briefly, cells were removed from 3D Matrigel and resuspended in ice cold SFM and washed three times using ice cold SFM. Organoids were then dissociated by resuspension in Trypsin+10 μM Y-27 for 4 min followed by quenching in DMEM supplemented with 10% FBS and washing. Coating media was removed from 384-well plates and organoids plated at 7000 cells/well after counting using hemocytometer and cultured for 24 hr. Seeding media was then removed and replaced with complete LWRN media and changed daily for 7 days until cultures became confluent and tissue patterning was observed.
384-well plates were imaged with fluorescent microscopy on a Nikon Eclipse TI2 automated microscope. For quantification of wave dynamics, organoids were imaged every 10-30 min. Tracking and segmentation of single cells in time lapse images in FIG. 2 was performed using the MATLAB program p53Cinema (Reyes et al., 2019). Analysis of the extracted data was performed in MATLAB. For the ERK activity heat maps in FIG. 3, images of the ERK-KTRmRuby2 and the H2B-iRFP670 were captured every 7 min for 24 hr. For each frame, individual nuclei were segmented using a MATLAB script developed in-house that identifies nuclei based on the H2B-iRFP670 images. The cytoplasmic ERK-KTRmRuby2 signal was obtained by creating a two pixel wide annulus surrounding the nucleus and averaging the intensity. Cells with active ERK were identified as having a mean ERK-KTR cytoplasmic signal>the mean ERK-KTR nuclear signal. The density-based spatial clustering of applications with noise algorithm (dbscan, MATLAB, 2021b) was performed on the centroids of ERK active cells to identify spatial clusters of cells with active ERK. A boundary was drawn around the spatial clusters using the boundary algorithm in MATLAB. The ERK positive regions of each frame were summed up to generate the heat map in MATLAB.
Since ERK waves are largely restricted to the post-mitotic, differentiated compartments in our gut organoid monolayer model, we hypothesized that ERK waves may help regulate the patterning observed in the GiLA1 monolayers by restricting the stem cell compartment. To test this hypothesis, we asked if global activation of ERK activity could disrupt the patterning of the organoid monolayers. a well-established activator of the ERK pathway, phorbol 12-myristate 13-acetate (PMA) was used to acutely activate ERK signaling across the monolayer. […] To determine if nodes re-formed once ERK activity returned to baseline, we treated GiLA1 monolayers with a pulse of 100 nM PMA for 1 min.

Wnt signaling = assay: TopGFP Wnt reporter in organoid monolayers; details: 3 μM pyrvinium, 72 hr
Protocol: Organoids were treated with either 3 μM pyrvinium to block Wnt signaling or 10 μM GSK-3 inhibitor to stimulate the Wnt pathway for 72 hr. Cells were fixed and stained for DAPI. Total GFP fluorescence across the monolayer was measured and normalized by mCherry control to obtain TopGFP measurements per condition. Significance between treatment groups was determined by t-test. Scale bar=100 μm.

SMILES: COc1cc2ncnc(Nc3ccc(F)c(Cl)c3)c2cc1OCCCN1CCOCC1 [Gefitinib]
- ERK waves and tropism towards dying cells [1]: did not induce ERK waves or display tropism towards dying cells

SMILES: CCCCCCCCCCCCCC(=O)O[C@@H]1[C@@H](C)[C@@]2(O)[C@@H](C=C(CO)C[C@]3(O)C(=O)C(C)=C[C@@H]23)[C@@H]2C(C)(C)[C@]12OC(C)=O [PMA, phorbol 12-myristate 13-acetate]
- ERK activity after continuous treatment (ERK; 100 nM PMA, 20-30 min (FIGS. 4B and C)): immediate hyperactivated ERK was observed in all cells
- time to activation of ERK (ERK): within hours
- ERK levels after pulse treatment, later (ERK; pulse of 100 nM PMA for 1 min, after washout): ERK levels returned to normal
- ERK activation after pulse treatment (ERK; pulse of 100 nM PMA for 1 min, read after 30 min): ERK activation in all cells
- loss of patterning (cell clusters) ([2]; 100 nM PMA, by 24 hr post-treatment (FIG. 4D-F)): almost complete loss of cell clusters
- speed of node loss / patterning defects [2]: rapid node loss
- node and ERK-KTR activity after pulse, washout and chase ([2]; PMA pulse 1 min, washout, chase for 24 hr (FIG. 4G bottom)): node loss and resuppression of ERK activity
- nodes after pulse treatment ([2]; pulse of 100 nM PMA for 1 min): node loss
- re-formation of nodes after pulse treatment ([2]; pulse of 100 nM PMA for 1 min, by 48 hr (FIG. 4G)): nodes did not re-form

SMILES: Cc1cc(/C=C/c2ccc3cc(N(C)C)ccc3[n+]2C)c(C)n1-c1ccccc1 [pyrvinium]
- Wnt signaling (TopGFP normalized by mCherry) (Wnt signaling): Inhibits Wnt Signaling
- time to activation of ERK (ERK): within hours
- speed of node loss / patterning defects [2]: took days to induce patterning defects
